Values of other authors as cited in patent US20140147549A1, “CARBOHYDRATE BAR” (NESTEC S.A., priority 2008, published 2014).

Conditions: previous research data, single carbohydrate source alone

O=C(CO)[C@@H](O)[C@H](O)[C@H](O)CO [fructose]
peak exogenous carbohydrate oxidation, single carbohydrate source: ~0.4 g/min
